Source: patent US10077293B2, “Antimicrobial peptide analogues derived from abalone (Haliotis discus) and antimicrobial pharmaceutical composition containing the same” (priority 2016, dated 2018)
Ends that are not written are not given here.

Assays:
[1] = tested on: P. aeruginosa KCTC2004; experiment: Ultrasensitive radial diffusion assay (URDA), antimicrobial activity; type: cell-based, Pseudomonas aeruginosa; settings: P. aeruginosa KCTC2004, Gram −
Protocol: (§1) Four species of Gram positive bacteria (Bacillus subtilis, Staphylococcus epidermidis, […] and Propionibacterium acnes), five species of Gram negative bacteria (E. coli D31, E. coli ML35p, Shigella flexneri, Pseudomonas aeruginosa and Vibrio parahaemolyticus) and one yeast species (Candida albicans) were used for experiments. The antimicrobial activity was measured by ultrasensitive radial diffusion assay (URDA) using two layers of media of different concentrations. First, the microorganisms were pre-cultured in each medium for 18 hours and the concentration of the microorganisms was adjusted to 84% T (≈1×10^8 CFU/mL) using a colorimeter (Product No. 52-1210, BioMerieux, Inc., USA). Then, 0.5 mL of the diluted microorganism solution was added to an underlay gel containing 9.5 mL of 0.03% TSB, 1% type I agarose and 10 mM phosphate buffer (PB; pH 6.5) and plated and solidified on a plate after mixing well. After boring a well with a diameter of 2.5 mm on the solidified plate using a punch, 5 μL of each analogue solution was introduced. All the analogues were dissolved in 5 μL of 0.01% acetic acid to avoid any effect of solvent. After the analogue permeated into the medium, the microorganisms were cultured for 3 hours and an overlay gel containing 10 mL of 6% TSB, 1% type I agarose and 10 mM phosphate buffer (pH 6.5) was poured and solidified. Then, the microorganisms were cultured again for 18 hours at the same temperature. Next day, the antimicrobial activity was determined by measuring the size (diameter) of a clear zone formed around the well. Piscidin 1, an antimicrobial peptide derived from the mast cells of a hybrid striped bass, was used as a control.

[2] = tested on: B. subtilis KCTC1021; experiment: as above; type: cell-based, Bacillus subtilis; settings: B. subtilis KCTC1021, Gram +
Protocol: as §1

[3] = tested on: Propionibacterium acnes KCTC11946; experiment: as above; type: cell-based; settings: Propionibacterium acnes KCTC11946, Gram +
Protocol: as §1

[4] = tested on: E. coli D31; experiment: as above; type: cell-based; settings: E. coli D31, Gram −
Protocol: as §1

[5] = tested on: Shigella flexneri KCTC2009; experiment: as above; type: cell-based; settings: Shigella flexneri KCTC2009, Gram −
Protocol: as §1

[6] = tested on: Vibrio parahaemolyticus KCCM42264; experiment: as above; type: cell-based
Protocol: as §1

[7] = tested on: S. epidermidis KCTC1917; experiment: as above; type: cell-based, Staphylococcus epidermidis; settings: S. epidermidis KCTC1917, Gram +
Protocol: as §1

[8] = tested on: S. mutans KCCM40105; experiment: as above; type: cell-based, Streptococcus mutans; settings: S. mutans KCCM40105, Gram +
Protocol: as §1

[9] = tested on: C. albicans; experiment: as above; type: cell-based, Candida albicans
Protocol: as §1

[10] = tested on: E. coli ML35p; experiment: Killing kinetics study; type: cell-based
Protocol: For killing kinetics study of the analogues whose bactericidal process was identified, killing rate for each analogue was investigated at 1×MIC and 5×MIC for 60 minutes. For this, the analogue was added to an e-tube containing 10^6 CFU/mL of E. coli ML35p. While incubating at 37° C., 10 μL of the solution was taken from the tube at predetermined times (5, 10, 20, 30, 40, 50 and 60 minutes after the addition of the analogue) and plated on a TSA plate. Then, the number of formed colonies was counted. As control groups, no analogue or piscidin 1 was added. The killing % for the analogues was represented as the number of formed colonies relative to that when no analogue was added.

[11] = tested on: E. coli ML35p; experiment: Ultrasensitive radial diffusion assay (URDA), antimicrobial activity; type: cell-based; settings: Gram −
Protocol: as §1

[12] = tested on: E. coli ML35p; experiment: Chromogenic bacteriolytic plate assay; type: cell-based; settings: E. coli ML35p (FIG. 6)
Protocol: In order to investigate the lytic activity of the analogues for bacterial membrane, chromogenic bacteriolytic plate assay was conducted using E. coli ML35p containing a chromosomal IPTG-inducible β-galactosidase gene (Mardones, G., Venegas, A. Chromogenic plate assay distinguishing bacteriolytic from bacteriostatic activity of an antibiotic agent. J Microbiol Methods. 2000, 40(3), 199-206). After inoculating 2 mL of E. coli ML35p to TSB and culturing at 37° C. for 16-18 hours, a mixture of 50 μL of the cultured microorganism solution, 10 μL of 1 mM IPTG and 50 μL of 50 mg/mL X-gal was poured onto TSB containing 0.8% agarose at 42° C. the next day. After boring a well on the solidified plate, 5 μL of each peptide analogue solution was introduced and incubation was conducted for 3 hours. Then, after pouring 2×TSB containing 10 mL of 1.5% agarose to the plate and solidifying, incubation was conducted again for 16-18 hours. After the incubation, the size (diameter) of a clearing zone and the presence or absence of a blue line at the edge portion were investigated.

[13] = tested on: human red blood cells; type: cell-based
Protocol: Hemolytic activity was measured using human red blood cells. After adding to human blood an equal amount of phosphate buffered saline (PBS, 50 mM sodium phosphate, 150 mM NaCl, pH 7.4), mixing and centrifuging at 8000×g and 4° C. for 1 minute, the supernatant was removed and the remaining red blood cells were washed 3 times. The red blood cells were added to PBS to a concentration of 3% hematocrit. In order to measure the hemolytic activity, 90 μL of the 3% hematocrit was introduced to an e-tube and then 10 μL of each analogue solution (×10) was added. After incubation of each e-tube at 37° C. for 1 hour, centrifugation was performed at 13,000×g and 4° C. for 10 minutes. After taking 70 μL from each supernatant and transferring to a 96-well microtiter plate, release of hemoglobin was measured at 405 nm. Triton X-100 (0.1%) was used as a control group for 100% lysis of red blood cells and the hemolytic activity was calculated according to the following equation. % Hemolysis=[(Abs 405 nm in the peptide solution−Abs 405 nm in buffer)/(Abs 405 nm in 0.1% Triton X-100−Abs 405 nm in buffer)]×100

[14] = C. albicans KCCM42264 (as printed in Table 2), yeast

Compound | Minimal effective concentration [1] | Minimal effective concentration [2] | Minimal effective concentration [3] | Minimal effective concentration [4] | Minimal effective concentration [5] | Minimal effective concentration [6] | Minimal effective concentration [7] | Minimal effective concentration [8] | Minimal effective concentration ([9]; C. albicans KCTC7965, yeast) | time to kill E. coli ML35p ([10]; 1×MIC) | time to kill E. coli ML35p ([10]; 5×MIC) | Minimal effective concentration [11] | bacteriolytic activity: blue line at the edge portion of the clearing zone [12] | Minimal effective concentration [9, 14] | hemolytic activity (in words, FIG. 4) [13]
KLALKLLKLL-NH2 [SEQ ID NO 5, KLALKLLKLL] | 19.9 µg/mL | 15.2 µg/mL | 16.6 µg/mL | 17.5 µg/mL | 17.9 µg/mL | 8.1 µg/mL | 16.4 µg/mL | 10.5 µg/mL | 14.4 µg/mL |  |  |  |  |  | 
FFHHIFRGIVHVGKTIHRLVTG-NH2 [Piscidin 1, reference compound] | 8.0 µg/mL | 7.5 µg/mL |  | 3.8 µg/mL | 8.0 µg/mL | 3.0 µg/mL |  | 3.2 µg/mL | >62.5 µg/mL | ≤ 20 min | ≤ 5 min | 2.3 µg/mL | showed an edge line | >62.5 µg/mL | 
KLLLKLLKKLL-NH2 [SEQ ID NO 8, KLLLKLLKKLL] | 12.5 µg/mL | 10.3 µg/mL | 12.3 µg/mL | 14.2 µg/mL | 10.7 µg/mL | 7.1 µg/mL | 9.6 µg/mL | 7.4 µg/mL | 11.8 µg/mL |  |  | 9.8 µg/mL |  |  | 
KLLKKLLKLL-NH2 [SEQ ID NO 9, KLLKKLLKLL] | 17.8 µg/mL | 15.7 µg/mL | 18.5 µg/mL | 18.9 µg/mL | 15.4 µg/mL | 9.5 µg/mL | 14.0 µg/mL | 9.0 µg/mL | 14.0 µg/mL |  |  | 17.2 µg/mL |  |  | 
LLWKLLKLLLK-NH2 [SEQ ID NO 2, LLWKLLKLLLK] | 14.2 µg/mL | 16.0 µg/mL | 18.0 µg/mL | 16.2 µg/mL | 11.6 µg/mL | 14.0 µg/mL | 18.4 µg/mL | 16.3 µg/mL |  |  |  | 12.1 µg/mL |  | 17.0 µg/mL | 
KAAAKAAKAA-NH2 (C-terminus assumed) [SEQ ID NO 6, KAAAKAAKAA] | >50.0 µg/mL | >50.0 µg/mL | >50.0 µg/mL | >50.0 µg/mL | >50.0 µg/mL | >50.0 µg/mL | >50.0 µg/mL | >50.0 µg/mL | >50.0 µg/mL |  |  | >50.0 µg/mL |  |  | 
LLWKLLKKL [SEQ ID NO 4, LLWKLLKKL] |  |  |  |  |  |  |  |  |  |  |  |  |  |  | good hemolytic activity
LKWLLKLLKLK-NH2 [SEQ ID NO 11, LKWLLKLLKLK] | 8.7 µg/mL | 12.1 µg/mL | 13.1 µg/mL | 14.1 µg/mL | 11.2 µg/mL | 9.0 µg/mL | 16.0 µg/mL | 12.0 µg/mL | 10.0 µg/mL |  |  | 15.0 µg/mL |  |  | 
KWLLKLLKKL [SEQ ID NO 10, KWLLKLLKKL] |  |  |  |  |  |  |  |  |  |  |  |  |  |  | good hemolytic activity
[H]/N=C(/N)N[C@H]1[C@H](O)[C@@H](O)[C@H](O[C@@H]2O[C@@H](C)[C@](O)(C=O)[C@H]2O[C@@H]2O[C@@H](CO)[C@H](O)[C@@H](O)[C@@H]2NC)[C@@H](N/C(N)=N\[H])[C@@H]1O [streptomycin] |  |  |  |  |  |  |  |  |  |  |  |  | showed a blue line at the edge portion |  | 
AAWKLLKALAKA-NH2 [SEQ ID NO 1, AAWKLLKALAKA] | 36.0 µg/mL | 20.0 µg/mL | 25.0 µg/mL | 22.0 µg/mL | 28.0 µg/mL | 26.3 µg/mL | 17.3 µg/mL | 20.3 µg/mL |  |  |  | 23.0 µg/mL |  | 42.0 µg/mL | 
KLLLKLLKLL-NH2 [SEQ ID NO 7, KLLLKLLKLL] | 11.2 µg/mL | 11.2 µg/mL | 11.9 µg/mL | 13.2 µg/mL | 10.4 µg/mL | 6.8 µg/mL | 8.8 µg/mL | 7.8 µg/mL | 12.1 µg/mL |  |  | 8.8 µg/mL |  |  | 
LLWKLLKKLLK-NH2 [SEQ ID NO 3, LLWKLLKKLLK] | 15.2 µg/mL | 14.0 µg/mL | 14.5 µg/mL | 19.4 µg/mL | 10.0 µg/mL | 9.1 µg/mL | 17.2 µg/mL | 15.8 µg/mL |  |  |  | 13.8 µg/mL |  | 15.0 µg/mL | 
